# Results as given in patent publication US6982353B2, “C2-disubstituted indan-1-ol compounds, their derivatives, processes for their preparation, and their use as pharmaceuticals” (Aventis Pharma Deutschland GmbH, priority 2001, dated 2006).
# How the values were obtained:
# female NMRI mice = assay: Anorectic action: cumulative evaporated milk consumption after 24 h removal of feed; assay type: in vivo; settings: dose 20 mg/kg (ip or po, route not specified)
# Experimental: The anorectic action was tested on female NMRI mice. After removal of feed for 24 hours, the preparation to be tested was administered intraperitoneally (ip) or by gavage (po). The animals were housed singly and, with free access to drinking water, they were offered evaporated milk 30 minutes after administration of the preparation. The consumption of evaporated milk was determined and the general behavior of the animals was monitored every half an hour for 7 hours. The measured milk consumption was compared to that of vehicle-treated control animals.
smiles,measurement,setting,value
"CS(=O)(=O)C1(F)Cc2cc(Cl)ccc2C1O (stereo not drawn) [Example 1, 5-Chloro-2-fluoro-2-methanesulfonylindan-1-ol]",Reduction in cumulative milk consumption as % of the control,female NMRI mice; compared with untreated control animals,46%
same,cumulative milk consumption by treated animals,"female NMRI mice; feed removed 24 h, milk offered 30 min after administration, monitored for 7 hours",5/2.06 ml
same,melting point,,101 °C
